This is an account of results in the supplement of paper PMC10307832.

Experiment in all cases: relative viability (nuclei count vs DMSO), 5 days (fraction); higher = more cells survive
Compound in assay [1]: CC1=NC=CC(=C1)C2=CC=C(C=C2)CC(=O)NC3=CC=C(C=C3)C4=CN=CC=C4 [Wnt-C59] + Cc1nc(Nc2ncc(C(=O)Nc3c(C)cccc3Cl)s2)cc(N2CCN(CCO)CC2)n1 [Dasatinib] (partner 0.075 µM)
An outline of the steps:
(§1)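 Relative viability equals treated-well nuclei counts divided by vehicle-well nuclei counts. Counts came from 4× images of lung cancer cell lines grown in 1536-well plates for 5 days after pin-tool dosing on the day after seeding. Dosing used one drug alone or a fixed anchor-drug dose plus five library-drug doses (not always all listed) in √10 steps, and values are medians of duplicate plates.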

Compound in assay [2]: CC1=NC=CC(=C1)C2=CC=C(C=C2)CC(=O)NC3=CC=C(C=C3)C4=CN=CC=C4 [Wnt-C59] + CC1(C)CCC(c2ccc(Cl)cc2)=C(CN2CCN(c3ccc(C(=O)NS(=O)(=O)c4ccc(N[C@H](CCN5CCOCC5)CSc5ccccc5)c(S(=O)(=O)C(F)(F)F)c4)cc3)CC2)C1 [Navitoclax] (partner 0.5 µM)
An outline of the steps:
as §1

Compound in assay [3]: CS(=O)(=O)CCNCc1ccc(-c2ccc3ncnc(Nc4ccc(OCc5cccc(F)c5)c(Cl)c4)c3c2)o1 [Lapatinib]
An outline of the steps:
(§2)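 Lung cancer cell lines were seeded into 1536-well plates, kept overnight at 37 °C and pinned with five library-drug doses (not always all listed) spaced by √10. After 5 days, nuclei were Hoechst-stained, imaged at 4× and counted with MetaXpress. Viability is treated-well nuclei over vehicle-well nuclei, taken as a median across plates. Plates needed control CV below 25% and at least one doubling.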

Compound in assay [4]: CC1=NC=CC(=C1)C2=CC=C(C=C2)CC(=O)NC3=CC=C(C=C3)C4=CN=CC=C4 [Wnt-C59]
A digest of the protocol: as §2

As for UMC-11, the relative viability in assay [1] (first compound 0.001 µM) was 0.444; in assay [1] (first compound 0.01 µM), 0.417; in assay [1] (first compound 0.03162 µM), 0.525; in assay [1] (first compound 0.1 µM), 0.468; in assay [2] (first compound 0.001 µM), 0.312; in assay [2] (first compound 0.01 µM), 0.315. Also, the relative viability came to 0.265 in assay [2] (first compound 0.03162 µM); 0.339 in assay [2] (first compound 0.1 µM); 0.906 in assay [3] (0.02 µM); 0.935 in assay [3] (0.06325 µM); 1.02 in assay [3] (0.2 µM); 0.998 in assay [3] (0.6325 µM). Moreover, the relative viability in assay [3] (2 µM) was 0.942; in assay [3] (2 µM, anchor plate), 1.02; in assay [4] (0.001 µM) it was 0.909; in assay [4] (0.01 µM), 1.04; in assay [4] (0.03162 µM), 1.08; in assay [4] (0.1 µM), 1.03.
